From ChEMBL document CHEMBL5316264, “Identification of N- and C-3-Modified Laudanosoline Derivatives as Novel Influenza PAN Endonuclease Inhibitors” (J Med Chem, 2023)
In brackets after ≈: the same amount, converted by molar mass. Activity calls are given as the source filed them. No cut-off for these calls is given here.

Key:
[1] = Metabolic stability in mouse plasma assessed as compound remaining measured after 30 mins by LC-MS/MS analysis; assay type: ADME, cell-free; conditions: read-out: Stability
[2] = Cytotoxicity against MDCK cells incubated for 48 hrs by MTT assay; assay type: toxicity, cell-based, Canis lupus familiaris; conditions: dog
Influenza A virus [3] = assay: Antiviral activity against influenza A virus H5N1(A/Duck/Guangdong/212/2004) infected in MDCK cells assessed as inhibition of cytopathic effect incubated for 48 hrs by MTT assay; assay type: functional, organism-based
Influenza A virus [4] = assay: Antiviral activity against influenza A virus H3N2(JX/312) infected in MDCK cells assessed as inhibition of cytopathic effect incubated for 48 hrs by MTT assay; assay type: functional, organism-based
Influenza A virus [5] = assay: Antiviral activity against influenza A virus Flu (B/Lee/1940) infected in MDCK cells assessed as inhibition of cytopathic effect incubated for 48 hrs by MTT assay; assay type: functional, organism-based
[6] = Distribution coefficient, logD of compound at pH 7.4; assay type: physicochemical; conditions: octanol/water
[7] = Aqueous solubility of compound; assay type: physicochemical
[8] = Solubility of the compound in FaSSIF; assay type: physicochemical
[9] = Solubility of the compound in FeSSIF; assay type: physicochemical
[10] = Metabolic stability in mouse plasma assessed as compound remaining measured after 60 mins by LC-MS/MS analysis; assay type: ADME, cell-free; conditions: read-out: Stability
[11] = Metabolic stability in mouse plasma assessed as compound remaining measured after 90 mins by LC-MS/MS analysis; assay type: ADME, cell-free; conditions: read-out: Stability
[12] = Metabolic stability in mouse plasma assessed as compound remaining measured after 120 mins by LC-MS/MS analysis; assay type: ADME, cell-free; conditions: read-out: Stability
[13] = Metabolic stability in mouse liver microsomes assessed as half life at 10 uM incubated for 5 mins in presence of NADPH by LC-MS/MS analysis; assay type: ADME, Microsome
[14] = Metabolic stability in mouse liver microsomes assessed as intrinsic clearance at 10 uM incubated for 5 mins in presence of NADPH by LC-MS/MS analysis; assay type: ADME, Microsome; conditions: read-out: CLH
[15] = Metabolic stability in mouse liver S9 fraction assessed as half life at 10 uM incubated for 5 mins in presence of NADPH and UDPGA by LC-MS/MS analysis; assay type: ADME, subcellular
[16] = Metabolic stability in mouse liver S9 fraction assessed as intrinsic clearance at 10 uM incubated for 5 mins in presence of NADPH and UDPGA by LC-MS/MS analysis; assay type: ADME, subcellular; conditions: read-out: CLH
[17] = Half life in BALB/c nude mouse at 2 mg/kg, iv measured after 24 hrs by LC-MS/MS analysis; assay type: ADME, organism-based; conditions: in vivo
[18] = Half life in BALB/c nude mouse at 10 mg/kg, po measured after 24 hrs by LC-MS/MS analysis; assay type: ADME, organism-based; conditions: in vivo
[19] = Half life in BALB/c nude mouse at 15 mg/kg, ip measured after 24 hrs by LC-MS/MS analysis; assay type: ADME, organism-based; conditions: in vivo
[20] = Tmax in BALB/c nude mouse at 10 mg/kg, po measured after 24 hrs by LC-MS/MS analysis; assay type: ADME, organism-based; conditions: in vivo
[21] = Tmax in BALB/c nude mouse at 15 mg/kg, ip measured after 24 hrs by LC-MS/MS analysis; assay type: ADME, organism-based; conditions: in vivo
[22] = Cmax in BALB/c nude mouse at 2 mg/kg, iv measured after 24 hrs by LC-MS/MS analysis; assay type: ADME, organism-based; parameters: time 24 hrs, dose 2 mg/kg, route iv; conditions: in vivo
[23] = Cmax in BALB/c nude mouse at 10 mg/kg, po measured after 24 hrs by LC-MS/MS analysis; assay type: ADME, organism-based; parameters: dose 10 mg/kg, time 24 hrs, route po; conditions: in vivo
[24] = Cmax in BALB/c nude mouse at 15 mg/kg, ip measured after 24 hrs by LC-MS/MS analysis; assay type: ADME, organism-based; parameters: time 24 hrs, dose 15 mg/kg, route ip; conditions: in vivo
[25] = AUC (0 to t) in BALB/c nude mouse at 2 mg/kg, iv measured after 24 hrs by LC-MS/MS analysis; assay type: ADME, organism-based; parameters: time 24 hrs, dose 2 mg/kg, route iv; conditions: in vivo
[26] = AUC (0 to t) in BALB/c nude mouse at 10 mg/kg, po measured after 24 hrs by LC-MS/MS analysis; assay type: ADME, organism-based; parameters: time 24 hrs, dose 10 mg/kg, route po; conditions: in vivo
[27] = AUC (0 to t) in BALB/c nude mouse at 15 mg/kg, ip measured after 24 hrs by LC-MS/MS analysis; assay type: ADME, organism-based; parameters: time 24 hrs, dose 15 mg/kg, route ip; conditions: in vivo
[28] = Clearance in BALB/c nude mouse at 2 mg/kg, iv measured after 24 hrs by LC-MS/MS analysis; assay type: ADME, organism-based; conditions: in vivo
[29] = Oral bioavailability in BALB/c nude mouse at 10 mg/kg measured after 24 hrs by LC-MS/MS analysis; assay type: ADME, organism-based; conditions: in vivo
[30] = Bioavailability in BALB/c nude mouse at 15 mg/kg, ip measured after 24 hrs by LC-MS/MS analysis; assay type: ADME, organism-based; conditions: in vivo
Influenza A virus [31] = assay: Antiviral activity against Influenza A A/WSN/33 (H1N1) infected in BALB/c mouse assessed as survival ratio at 15 mg/kg/day, ip administered twice daily for 5 days starting from 1 hrs post infection and measured daily for 14 days relative to control; assay type: functional; conditions: time 14 day
Influenza A virus [32] = assay: Antiviral activity against Influenza A A/WSN/33 (H1N1) infected in BALB/c mouse at 30 mg/kg/day, ip administered twice daily for 5 days starting from 1 hrs post infection and measured daily for 14 days; assay type: functional, organism-based; conditions: time 5.0 day
Influenza A virus [33] = assay: Antiviral activity against Influenza A A/WSN/33 (H1N1) infected in BALB/c mouse assessed as protection against body weight loss administered ip twice daily for 5 days starting from 1 hrs post infection and measured daily for 14 days; assay type: functional, organism-based; conditions: dose 7.5-30 mg/kg/day, time 5.0 day
Influenza A virus [34] = assay: Antiviral activity against influenza A virus A/WSN/33 (H1N1) infected in MDCK cells assessed as effect on nucleoprotein viral protein expression at 20 uM pretreated with cells for 1 hr followed by viral infection; assay type: functional, organism-based
Influenza A virus [35] = assay: Antiviral activity against influenza A virus A/WSN/33 (H1N1) infected in MDCK cells assessed as effect on matrix protein 2 expression at 20 uM pretreated with cells for 1 hr followed by viral infection; assay type: functional, organism-based
Influenza A virus [36] = assay: Antiviral activity against influenza A virus A/WSN/33 (H1N1) infected in MDCK cells assessed as effect on nucleoprotein expression at 20 uM pre-infected with virus for 30 mins followed by 1 hr incubation with cells; assay type: functional, organism-based; conditions: time 1.5 hrs
Influenza A virus [37] = assay: Antiviral activity against influenza A virus A/WSN/33 (H1N1) infected in MDCK cells assessed as effect on matrix protein 2 expression at 20 uM pre-infected with virus for 30 mins followed by 1 hr incubation with cells; assay type: functional, organism-based; conditions: time 1.5 hrs
Influenza A virus [38] = assay: Antiviral activity against influenza A virus A/WSN/33 (H1N1) infected in MDCK cells assessed as reduction in nucleoprotein expression at 20 uM cells pre-infected with virus for 1 hr followed by compound addition; assay type: functional, organism-based
Influenza A virus [39] = assay: Antiviral activity against influenza A virus A/WSN/33 (H1N1) infected in MDCK cells assessed as reduction in matrix protein 2 expression at 20 uM cells pre-infected with virus for 1 hr followed by compound addition; assay type: functional, organism-based
Influenza A virus [40] = assay: Antiviral activity against influenza A virus A/WSN/33 (H1N1) infected in MDCK cells assessed as reduction in PB2 mRNA level at 20 uM measured upto 10 hrs after viral infection by RT-PCR analysis; assay type: functional, organism-based
Influenza A virus [41] = assay: Antiviral activity against influenza A virus A/WSN/33 (H1N1) infected in MDCK cells assessed as reduction in PB2 mRNA level at 20 uM measured after 2 to 5 hrs after viral infection by RT-PCR analysis; assay type: functional, organism-based; conditions: time 2-5 hrs
Influenza A virus [42] = assay: Antiviral activity against influenza A virus A/WSN/33 (H1N1) infected in MDCK cells assessed as reduction in PB2 mRNA level at 20 uM measured after 5 to 8 hrs after viral infection by RT-PCR analysis; assay type: functional, organism-based; conditions: time 5-8 hrs
Erythrocyte = assay: Inhibition of hemagglutination in chicken RBC cells infected with Influenza A virus A/WSN/33 (H1N1) assessed as reduction in virus-induced agglutination of erythrocytes at 0.31 to 81 uM pretreated with H5 antigen for 30 mins followed by addition of chicken erythrocytes measured after 1 hr; assay type: functional, cell-based; conditions: Gallus gallus, dose 0.31-81 µM, time 1.5 hrs
Influenza A virus [43] = assay: Antiviral activity against influenza A virus A/WSN/33 (H1N1) infected in MDCK cells assessed as reduction of ratio of pPOLI-Fluc to Renilla luciferase activity at 2.5 to 10 uM pre-infected with virus for 1 hr followed by compound addition and measured after 24 hrs post infection; assay type: functional, organism-based; conditions: dose 2.5-10 µM
Influenza A virus [44] = assay: Antiviral activity against influenza A virus A/WSN/33 (H1N1) infected in MDCK cells assessed as increase in inhibition of luciferase activity pre-infected with virus for 1 hr followed by compound addition and measured after 24 hrs post infection; assay type: functional, organism-based; conditions: dose <= 6.0 nM
Influenza A virus [45] = assay: Antiviral activity against influenza A virus A/WSN/33 (H1N1) infected in MDCK cells assessed as inhibition of cRNA synthesis pre-infected with virus for 1 hr followed by compound addition and measured after 24 hrs post infection by RT-qPCR analysis; assay type: functional, organism-based; conditions: dose 2.5-10 µM
in vitro = conditions: dog, MDCK cells

Q: Which remaining at 0.5 h [1] does the source give for `CCCOC(=O)[C@@H]1Cc2cc(O)c(O)cc2[C@H](Cc2ccc(O)c(O)c2)N1C(=O)c1ccccc1Cl` here?
A: 100%

Q: And the CC50 at 48 h [2]?
A: 99500 nM

Q: And the EC50 (Influenza A virus [3])?
A: 1120 nM

Q: And the EC50 (Influenza A virus [4])?
A: 760 nM

Q: What about the EC50 (Influenza A virus [5]) of the same molecule?
A: 430 nM

Q: What about the logD [6] of the same molecule?
A: 3.25

Q: And the solubility [7]?
A: 1.62 µM (≈ 0.829 µg/mL)

Q: What about the solubility [8] of the same molecule?
A: 78.2 µM (≈ 40 µg/mL)

Q: And the solubility [9]?
A: 75.3 µM (≈ 38.6 µg/mL)

Q: And the remaining at 1 h [10]?
A: 95.6%

Q: And the remaining at 1.5 h [11]?
A: 91.5%

Q: And the remaining at 2 h [12]?
A: 89.8%

Q: What about the half-life at 10 µM [13] of the same molecule?
A: 9.2 min

Q: And the microsomal CLint at 10 µM [14]?
A: 134 µL/min/mg

Q: What about the half-life at 10 µM [15] of the same molecule?
A: 103 min

Q: What about the microsomal CLint at 10 µM [16] of the same molecule?
A: 9.57 µL/min/mg

Q: What about the half-life [17] of the same molecule?
A: 19.8 min

Q: What about the half-life [18] of the same molecule?
A: 49.2 min

Q: And the half-life [19]?
A: 64.2 min

Q: And the Tmax [20]?
A: 31.2 min

Q: And the Tmax [21]?
A: 27 min

Q: And the Cmax [22]?
A: 1590 ng/mL

Q: What about the Cmax [23] of the same molecule?
A: 92.2 ng/mL

Q: And the Cmax [24]?
A: 890 ng/mL

Q: And the AUC(0-t) at 24 h [25]?
A: 536 ng·h/mL

Q: And the AUC(0-t) at 24 h [26]?
A: 164 ng·h/mL

Q: And the AUC(0-t) at 24 h [27]?
A: 791 ng·h/mL

Q: And the clearance [28]?
A: 53.8 mL/min/kg

Q: And the bioavailability [29]?
A: 6.13%

Q: And the bioavailability [30]?
A: 29.5%

Q: And the Activity (Influenza A virus [31])?
A: 60%

Q: And the Activity (Influenza A virus [32])?
A: Active

Q: And the Activity (Influenza A virus [33])?
A: Dose-Dependent Effect

Q: What about the Activity (Influenza A virus [34]) of the same molecule?
A: inactive

Q: And the Activity (Influenza A virus [35])?
A: inactive

Q: What about the Activity (Influenza A virus [36]) of the same molecule?
A: inactive

Q: And the Activity (Influenza A virus [37])?
A: inactive

Q: And the Activity (Influenza A virus [38])?
A: Active

Q: And the Activity (Influenza A virus [39])?
A: Active

Q: And the Activity (Influenza A virus [40])?
A: Active

Q: What about the Activity (Influenza A virus [41]) of the same molecule?
A: Active

Q: And the Activity (Influenza A virus [42])?
A: Active

Q: And the inhibition (Erythrocyte)?
A: inactive

Q: And the Activity (Influenza A virus [43])?
A: Active

Q: What about the Activity (Influenza A virus [44]) of the same molecule?
A: Dose-Dependent Effect

Q: What about the Activity (Influenza A virus [45]) of the same molecule?
A: Dose-Dependent Effect

Q: What about the selectivity ratio (in vitro) of the same molecule?
A: 113
